Source: patent US10709677B2, “Therapeutic uses of benzylideneguanidine derivatives for the treatment of proteopathies” (InFlectis BioScience, priority 2014, dated 2020)

Columns and labels:
[1] = test system: HeLa cells; experiment: Cytoprotection from ER stress (tunicamycin, WST-8 cell viability); assay type: cell-based; details: 6 hour exposure of tunicamycin 5 μg/mL, inhibitors 0.5-10 μM, viability 48 h or 72 h after
Source text: Cytoprotection against ER stress can be measured by a suitable assay. For example, cytoprotection can be measured in HeLa cells in which ER stress is elicited by the addition of media containing tunicamycin, a mixture of homologous nucleoside antibiotics that inhibits the UDP-HexNAc: polyprenol-P HexNAc-1-P family of enzymes and is used to induce unfolded protein response. Cell viability can be detected in the presence and absence of inhibitor compounds after a set period of time, by measuring the reduction of WST-8 into formazan using a standard cell viability kit (such as Cell Viability Counting Kit-8 from Dojindo). The person skilled in the art may use other class of tetrazolium compounds such as MTT, MTS, XTT. Cytoprotection from ER stress is measured in terms of the percentage increase in viable cells (relative to control) after ER stress. Alternative cell viability assays may be used such as luminogenic ATP assay. Further details of a suitable assay are set forth in the accompanying Examples section.
HeLa Cells were cultured in Eagle's Minimum Essential Medium (EMEM) supplemented with Glutamine, Sodium Pyruvate, Non-Essential Amino Acids, Penicillin and Streptomycin containing 10% Fœtal Bovine Serum (FBS), at 37° C. in 5% CO2 atmosphere. Cells were plated in 96 well plates at a density of 17,000 cells/mL the day before the treatment. ER stress was elicited by addition of 5 μg/mL tunicamycin (Sigma-Aldrich) together with the phosphatases inhibitors (0.5-10 μM). Media were changed 6 h later with fresh media and the cytoprotection was maintained by the addition of the phosphatases inhibitors (0.5-10 μM). Cell viability was assessed by measuring the reduction of WST-8 into formazan using Cell Counting Kit-8 (Sigma) according to the supplier's recommendation, 48 h or 72 h after tunicamycin treatment.

[2] = test system: HeLa cells; experiment: Assessment of translation rates in unstressed cells; assay type: cell-based; details: compounds 50 μM for 2.5, 5 and 9 h
Procedure: Culture medium was replaced by methionine-free DMEM medium (Invitrogen) 30 min before compounds addition. One hour before each time point, 50 μM of Click-iT® AHA (L-azidohomoalanine) (Invitrogen) was added to the culture medium in order to label newly synthesized proteins. At the end of each time point, cells were washed with ice-cold PBS and harvested by Trypsine dissociation (Lonza), then lysed in a 50 mM Tris-HCl buffer containing 1% of SDS (Sigma) and protease and phosphatase inhibitors (Sigma). Protein samples were coupled to alkyne biotin (Invitrogen) using Click-iT® Protein Reaction Buffer Kit (Invitrogen). Samples were denatured at 70° C. for 10 min, resolved on ECL 4-20% precasted gels (GE Healthcare) and transferred to nitrocellulose membranes (GE Healthcare). Alkyne biotin coupled to Click-iT® AHA incorporated to newly synthesized proteins was detected using streptavidin-HRP (Gentex). Revelation was performed by incubation of ECL Prime (GE Healthcare) and read by chemoluminiscence using Fusion Solo 3S (Vilber Lourmat).

[3] = test system: Min6 cells; experiment: Protection against accumulation of misfold prone Insulin Akita in Min6 cells; assay type: cell-based; details: viability 9 days after treatment
Procedure: Min6 cells were nucleofected with Insulin^Akita a mutant constructs and seeded in 96 well-plates at 300,000 cells/mL and 24 h later, cells were treated with molecules or left untreated. As a control, cells were nucleofected with non-relevant plasmid. 6 days later, a selective agent was added (G418).
Cell viability was assessed by measuring the reduction of WST-8 into formazan using Cell Counting Kit-8 (Sigma) according to the supplier's recommendation, 9 days after treatment.

[4] = test system: INS1 insulinoma cell; experiment: Cytoprotection from ER stress (tunicamycin) in INS1 cell line; assay type: cell-based; details: 6 hour exposure to tunicamycin, different concentrations
Procedure: (§1) Cells were plated in 96 well plates at a density of 0.5·10^6 cells/mL for Min6 cell line, 0.4·10^6 cells/mL for INS1 cell line the day before the treatment.
(§2) ER stress was elicited by addition of 2.5 μg/mL tunicamycin (Sigma Aldrich) together with phosphatases inhibitors.
(§3) Media were changed 6 h later with fresh media and the cytoprotection was maintained by the addition of phosphatases inhibitors.
(§4) Cell viability was assessed by measuring the reduction of WST-8 into formazan using Cell Counting Kit-8 (Sigma) according to the supplier's recommendation, 72 h after tunicamycin treatment.

[5] = test system: mouse embryonic fibroblasts lipofected with poly I:C; experiment: In vitro inflammation/infection model: poly I:C induced mouse embryonic fibroblasts; assay type: cell-based; details: 25 μM, 6 h, IFN-beta ELISA
Procedure: After 6 h of culture, eIF2alpha-phosphorylation (eIF2α-P) and PPP1R15A (GADD34) expression was monitored by western blotting, while type-I Interferon (IFN)-beta production was quantified in culture supernatants by ELISA. Control (nt) and poly I:C/DMSO are respectively negative and positive controls.
MEFs were cultured in DMEM, 10% FCS (HyClone, Perbio), 100 units/ml penicillin, 100 μg/ml streptomycin, 2 mM glutamine, 1×MEM non-essential amino acids and 50 μM 2-mercaptoethanol. MEFS were treated for the indicated time with 10 μg/ml poly I:C (InvivoGen) in combination with lipofectamine 2000 (Invitrogen).
Cells were lysed in 1% Triton X-100, 50 mM Hepes, 10 mM NaCl, 2.5 mM MgCl2, 2 mM EDTA, 10% glycerol, supplemented with Complete Mini Protease Inhibitor Cocktail Tablets (Roche). Protein quantification was performed using the BCA Protein Assay (Pierce). […] Rabbit polyclonal antibodies recognizing GADD34 (C-19) were from Santa Cruz Biotechnology and anti-eIF2alpha[pS^52] were from Invitrogen.
IFN-beta quantification in culture supernatant was performed using the Mouse Interferon Beta ELISA kit (PBL Interferon Source) according to manufacturer instructions.

[6] = test system: Min6 insulinoma cell; experiment: Cytoprotection from ER stress (tunicamycin) in Min6 cell line; assay type: cell-based; details: 6 hour exposure to tunicamycin, different concentrations
Procedure: as §1, §2, §3, §4

[7] = target: T1, human alpha2A receptor (Homo sapiens, UniProt P08913); experiment: Functional GPCR assay for adrenergic α2A receptor (CellKey detection method); assay type: cell-based; details: agonist activity, CHO cells, impedance; EC50>33.3 μM considered no significant alpha-2 adrenergic activity; read-out: Functional adrenergic alpha2 receptor assay EC50
T1 construct: CHO cells endogenously expressing human alpha2A receptor; endogenous in cells; host or cells: CHO cells
T1 sequence (P08913 1-465): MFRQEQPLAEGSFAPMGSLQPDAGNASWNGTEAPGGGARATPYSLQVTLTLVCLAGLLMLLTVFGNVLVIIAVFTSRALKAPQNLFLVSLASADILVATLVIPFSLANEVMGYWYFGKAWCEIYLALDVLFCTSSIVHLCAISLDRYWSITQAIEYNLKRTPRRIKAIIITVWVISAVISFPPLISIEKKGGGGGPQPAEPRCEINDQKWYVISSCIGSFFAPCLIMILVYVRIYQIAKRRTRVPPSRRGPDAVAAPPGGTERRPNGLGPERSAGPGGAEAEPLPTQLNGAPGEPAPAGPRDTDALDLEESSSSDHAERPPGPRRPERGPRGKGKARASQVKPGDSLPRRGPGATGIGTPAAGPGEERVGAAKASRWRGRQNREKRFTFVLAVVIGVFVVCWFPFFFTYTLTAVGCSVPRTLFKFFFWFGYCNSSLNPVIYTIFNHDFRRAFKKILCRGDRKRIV

[8] = test system: HeLa cells; details: tunicamycin, Tsaytler et al., Science 2011, cited from earlier work; for protection of cells from cytotoxic ER stress: HeLa cells

Compound	Cytoprotection from ER stress compared to guanabenz [1]	Translation inhibition in non-stressed cells [2]	further results
N=C(N)N/N=C/c1ccccc1Br [Compound 3, 2-(2-bromobenzylidene) hydrazinecarboximidamide]	++	no effect	
COc1ccccc1/C=N/NC(=N)N [Compound 4, 2-(2-methoxybenzylidene) hydrazinecarboximidamide]	+		
N=C(N)N/N=C/c1ccncc1Cl [Compound 6, 2-[(3-chloropyridin-4-yl)methylidene]hydrazinecarboximidamide]	+	no effect	cell death associated with accumulation of misfold prone Insulin Akita (FIG. 8) [3]: prevent cell death; INS1 insulinoma cell death induced by tunicamycin (FIG. 10) [4]: prevent INS1 insulinoma cell death; type-I IFN production (FIG. 13) [5]: prevent type-I IFN production; Min6 insulinoma cell death induced by tunicamycin (FIG. 9) [6]: prevent Min6 insulinoma cell death
CC(=O)O.N=C(N)N/N=C/c1ccncc1Cl [Compound 7, 2-[(3-chloropyridin-4-yl)methylidene]hydrazinecarboximidamide acetate]	++	no effect	EC50 [7]: > 33300 nM
CC(=O)O.N=C(N)N/N=C/c1c(F)cccc1Cl [Compound 8, 2-(2-chloro-6-fluorobenzylidene)hydrazinecarboximidamide acetate]	++	no effect	type-I IFN production (FIG. 13) [5]: prevent type-I IFN production
Cc1ccc(/C=N/NC(=N)N)c(Cl)c1 [Compound 9, 2-(2-chloro-4-methylbenzylidene)hydrazinecarboximidamide]	−		
Cc1ccc(Cl)c(/C=N/NC(=N)N)c1 [Compound 10, 2-(2-chloro-5-methylbenzylidene)hydrazinecarboximidamide]	+		
Cc1cccc(/C=N/NC(=N)N)c1Cl [Compound 11, 2-(2-chloro-3-methylbenzylidene)hydrazinecarboximidamide]	+		
Clc1cccc(Cl)c1N=C1NCCN1 [clonidine]			protection of cells from cytotoxic ER stress [8]: Neither the α2-adrenergic receptor agonist clonidine, nor the α2-adrenergic receptor antagonist efaroxan protected cells
CCC1(C2=NCCN2)Cc2ccccc2O1 (stereo not shown) [efaroxan]			protection of cells from cytotoxic ER stress [8]: Neither the α2-adrenergic receptor agonist clonidine, nor the α2-adrenergic receptor antagonist efaroxan protected cells
NC(N)=N/N=C/c1c(Cl)cccc1Cl [guanabenz, 2-(2,6-dichlorobenzylidene)hydrazinecarboximidamide]			protection of cells from cytotoxic ER stress [8]: doubled the number of cells surviving ER stress; EC50 ([8]; read-out: median effective concentration, survival of HeLa cells exposed to ER stress): ~400 nM
